Where a name gives a salt, the structure may show the parent alone. Read-outs that look alike come from different tables or passages of the source.
How the values were obtained:
CHO‐hSGLT1/2 cells = assay: Cytotoxicity assay (ToxiLight, adenylate kinase leakage into CHO‐SGLT1/2 inhibition assay media); parameters: CYTOTOXICITY / CY[…], mean / CYTOTOXICITY (% of vehicle control) Mean / CYTOTOXICITY, mean / CY[…] (% of vehicle control) Mean: dose or concentration left out as unconfirmed; conditions: for CYTOTOXICITY, mean: ToxiLight, adenylate kinase leakage;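 for all read-outs here: bioluminescent read-out of adenylate kinase released from lysed cells into the medium, given relative to DMSO vehicle control defined as 0%, higher meaning more cytolysis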
hSGLT2 = molecular target: T1, hSGLT2 (Homo sapiens, UniProt P31639); assay: SGLT2 inhibition assay for validation of screening hits and similar compounds (1‐NBD‐glucose uptake, CHO‐hSGLT2 cells); type: cell-based; parameters: activity: dose or concentration left out as unconfirmed; conditions: for SGLT2/SGLT1 ACTIVITY RATIO, first concentration / SGLT2/SGLT1 ACTIVITY RATIO, second concentration: ratio of normalized SGLT2 to SGLT1 activity; for activity: compound, mean, normalized 1-NBD-glucose uptake, CHO-hSGLT2 cells
T1 sequence (P31639 1-672): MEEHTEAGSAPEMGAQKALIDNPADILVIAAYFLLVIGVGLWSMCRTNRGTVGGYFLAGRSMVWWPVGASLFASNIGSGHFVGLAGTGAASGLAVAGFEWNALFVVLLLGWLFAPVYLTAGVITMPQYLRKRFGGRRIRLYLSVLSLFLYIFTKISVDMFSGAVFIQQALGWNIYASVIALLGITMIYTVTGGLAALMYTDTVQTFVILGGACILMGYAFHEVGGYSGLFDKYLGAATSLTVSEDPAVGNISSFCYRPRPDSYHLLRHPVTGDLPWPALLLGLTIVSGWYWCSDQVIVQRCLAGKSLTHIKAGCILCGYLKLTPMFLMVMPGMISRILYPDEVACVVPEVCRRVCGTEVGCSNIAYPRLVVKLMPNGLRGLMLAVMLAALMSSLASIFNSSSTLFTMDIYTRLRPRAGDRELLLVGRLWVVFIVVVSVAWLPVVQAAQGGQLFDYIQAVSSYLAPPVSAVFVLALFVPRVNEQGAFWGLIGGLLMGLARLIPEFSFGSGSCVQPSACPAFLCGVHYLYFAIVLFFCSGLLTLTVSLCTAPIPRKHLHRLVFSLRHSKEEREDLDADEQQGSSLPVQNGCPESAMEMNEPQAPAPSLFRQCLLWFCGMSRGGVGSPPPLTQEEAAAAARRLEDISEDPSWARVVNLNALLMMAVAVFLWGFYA

[1] = ratio of normalized SGLT2 to SGLT1 activity at 5 uM

Row | SMILES | CY[…] (% of vehicle control) Mean (CHO‐hSGLT1/2 cells) | SGLT2/SGLT1 ACTIVITY RATIO 5 uM Mean (hSGLT2; [1]) | CYTOTOXICITY, mean (CHO‐hSGLT1/2 cells) | SGLT2/SGLT1 ACTIVITY RATIO, first concentration (hSGLT2) | SGLT2/SGLT1 ACTIVITY RATIO, second concentration (hSGLT2) | other results
1 | CN1CCOC(c2ccccc2)c2ccccc2C1 (centres unmarked) [Nefopam HCl] | -25 % of vehicle control | 0.9 |  |  |  | 
2 | CC(=O)O[C@@H]1C[C@H](O)[C@@]23CO[C@@H](O)[C@]1(C)[C@@H]2C[C@@H](O)[C@]1(C)[C@@H]3C(=O)[C@H](OC(C)=O)[C@@]2(C)[C@H](c3ccoc3)C[C@H]3O[C@]321 [Toosendanin] |  |  | -4.53 | 1.0 | 1.0 | 
3 | CNCCCN1c2ccccc2CCc2ccccc21 [Desipramine HCl] | -19 % of vehicle control | 0.759 |  |  |  | 
4 | CN1[C@@H]2CC[C@H]1C[C@@H](OC(c1ccccc1)c1ccccc1)C2 [Benztropine mesylate] | -10 % of vehicle control |  |  |  |  | activity (hSGLT2): 73%
5 | OC(CCN1CCCCC1)(c1ccccc1)C1CCCCC1 (racemic) [(±)-Trihexyphenidyl HCl] | -12 % of vehicle control |  |  |  |  | SGLT2/SGLT1 ACTIVITY RATIO 5 uM Mean (hSGLT2): 1.0; SGLT2/SGLT1 ACTIVITY RATIO 50 mM Mean (hSGLT2): 1.3
6 | CC1(C)C(=O)C=C[C@@]2(C)C1=C(O)C(=O)[C@]1(C)[C@@H]2[C@@H](O)CC2=C(c3ccoc3)C[C@@H](O)[C@]21C [Walsuronoid B] |  |  | -23 | 0.9 | 1.0 | 
7 | CC(=O)O[C@H]1C[C@@H](OC(C)=O)[C@@]2(C)CO[C@H]3[C@@H](O)[C@@]4(C)C5=CC[C@@H](c6ccoc6)[C@]5(C)CC[C@@H]4[C@]1(C)[C@@H]32 [1,3-Diacetylvilasinin] |  |  | -18 | 1.1 | 1.1 | 
8 | CC(CN(C)C)CN1c2ccccc2CCc2ccccc21 (centres unmarked) [Trimipramine maleate] | -9 % of vehicle control | 1.0 |  |  |  | activity (hSGLT2): 87%
9 | COc1cc2c(=O)c(-c3ccc(O)cc3)coc2cc1O[C@@H]1O[C@H](CO)[C@@H](O)[C@H](O)[C@H]1O [Glycitin] |  | 1.1 |  |  |  | CYTOTOXICITY (% of vehicle control) Mean (CHO‐hSGLT1/2 cells): -22 % of vehicle control; activity (hSGLT2): 106%
10 | CC1(C)C(=O)C=C[C@@]2(C)C1=C(O)C(=O)[C@]1(C)[C@@H]2CC[C@@]2(C)[C@H](c3ccoc3)C[C@H]3O[C@]321 [Cedrelone] |  |  | -26 | 1.2 | 1.1 | 
11 | CC=C(C)C(=O)O[C@H]1c2c(ccc3ccc(=O)oc23)OC(C)(C)[C@H]1OC(=O)C(C)=CC [Praeruptorin B - JR MediChem] |  | 0.9 |  |  |  | CYTOTOXICITY (% of vehicle control) Mean (CHO‐hSGLT1/2 cells): -19 % of vehicle control
12 | CC1(C)OC(=O)C=C[C@]2(C)[C@H]3CC[C@@]4(C)[C@H](c5ccoc5)OC(=O)[C@H]5O[C@]54[C@]3(C)C(=O)C[C@@H]12 [Obacunone] |  |  | -21 | 1.2 | 1.1 | 
13 | CC1(C)C(=O)C=C[C@@]2(C)C1=C(O)C(=O)[C@]1(C)[C@@H]2[C@@H](O)C[C@@]2(C)[C@H](c3ccoc3)C[C@H]3O[C@]321 [11beta-Hydroxycedrelone] |  |  | -13 | 1.7 | 1.2 | 

From paper PMC6664820, “Novel natural and synthetic inhibitors of solute carriers SGLT1 and SGLT2” (Pharmacology Research & Perspectives, 2019)
